Where a name gives a salt, the structure may show the parent alone. Bounds are passed on as bounds.

This is an account of results in US20130023563A1, “AMIDINOANILINE DERIVATIVE” (AJINOMOTO CO., INC., priority 2010, published 2013).

For one data set, the target named is FXa (Homo sapiens, UniProt P00742). The data set is described as follows: Measurement of inhibitory activity against activated factor X (chromogenic substrate S-2222). The following applies: 0.015 U/ml FXa, 0.2 mM S-2222, absorbance 405 nm; read-out: FXa (pIC50) (converted). It counts as biochemical. The procedure:
Experimental Example 1 Measurement of Inhibitory Activity Against Activated Factor X Activity
(§1) Using a 96-well plate (#3396, Costar), 100 mM Tris-HC1 buffer (130 μL) containing 0.02% Tween 20, 0.1% PEG6000 and 0.2M NaCl was admixed with 0.015 U/ml FXa (10 μL) and a test compound (10 μL) for 10 min and a color developing substrate 0.2 mM S-2222 (50 μL) was added. Using a microplate reader Benchmark Plus (BIO-RAD), the reaction rate was measured from the time course changes at absorbance 405 nm. Using the reaction rate of the control as 100%, the negative logarithmic value of the concentration that can suppress the reaction rate of the control by 50% was taken as the pIC50 value.

Data set [1] has as its target activated factor IIa (thrombin) (Homo sapiens, UniProt P00734). The experiment in a line: Measurement of inhibitory activity against activated factor II (chromogenic substrate S-2238). It counts as biochemical. The following applies: 0.125 U/ml thrombin, 0.1 mM S-2238, absorbance 405 nm; read-out: FIIa (pIC50) (converted). The procedure:
Experimental Example 2 Measurement of Inhibitory Activity Against Activated Factor II (FIIa, Thrombin)
as §1, with “mM Tris-HCl” for “mM Tris-HC1”, “with 0.125” for “with 0.015”, “U/ml activated factor IIa (thrombin)” for “U/ml FXa”, “substrate 0.1” for “substrate 0.2”, “mM S-2238” for “mM S-2222”

Data set [2] has as its system human plasma. The experiment in a line: Anti-blood coagulant activity, aPTT method, Sysmex CA-1500 (Experimental Example 3-1). It counts as biochemical. The following applies: negative logarithmic value of the concentration that prolongs aPTT of the control 2 times. The procedure:
Experimental Example 3-1 Measurement of Anti-Blood Coagulant Activity
Examples 1, 8, 9, 11, 13, 16-19 and 22 were measured according to the following method.
(§2) An aPTT measurement method using totally automatic blood coagulation time measuring apparatus Sysmex CA-1500 was used. A 10 mg/ml DDVP solution (DDVP standard product, Wako) (4 μL) and a test compound solution (20 μL) were placed in a sample tube (MS-18, Japan Medical Science), human plasma (standard human plasma for blood coagulation test, GCH-100A, Sysmex) (180 μL) was added and the mixture was used as a test sample. The test sample (50 μL) was incubated at 37° C. for 1 min, data fi APTT (rabbit brain-derived cephalin, DADE Behiring) (50 μL) was added, and the mixture was further incubated at 37° C. for 2 min. To the sample solution was added 0.02M calcium chloride (50 μL), and the time until plasma coagulation was automatically measured.
(§3) As the anti-blood coagulant activity, the negative logarithmic value of the concentration that prolongs aPTT of the control 2 times is shown as paPTT2.

A short description of data set [3]: Evaluation of stability in plasma. The class given is in vitro ADME. The following applies: human plasma, 37° C., read-out: T½. The procedure: Experimental Example 4 Evaluation of stability in plasma
To human plasma (495 μL) was added 5 μL from a solution of the test compound prepared to 200 μM (final drug solution concentration 2 μM), and the mixture was incubated at 37° C. At 0 min, 1 min, 2 min, 5 min and 10 min from the addition of the drug solution, 50 μL each was sampled, 0.1 mg/ml DDVP-containing acetonitrile (350 μL) was added, and the reaction was discontinued by blending them. After discontinuation of the reaction, a deproteination treatment was performed by a centrifugation operation at 15000 rpm for 5 min. The centrifugation supernatant (350 μL) was dried to solidness, concentrated, dissolved in aqueous solution (100 μL) of 20% acetonitrile and 0.1% formic acid and the mixture was subjected to the measurement by LC/MS/MS.
The half-life (T1/2) was calculated using initial 3rd-4th time points.

Data set [4] can be described thus: Evaluation of stability in liver S9 fraction. The following applies: human liver S9 fraction 2 mg/mL, 2 μM, 37° C. It counts as in vitro ADME. The procedure: Experimental Example 5 Evaluation of Stability in Liver S9 Fraction
Metabolism reaction mixed solution (0.1 mM EDTA-100 mM potassium phosphate buffer (pH 7.4), 2 mg/mL human liver S9 fraction, 0.5 mM oxidized nicotinamide adenine dinucleotide phosphate, 5 mM glucose-6-phosphoric acid, 1 unit/mL glucose-6-phosphate dehydrogenase) was pre-warmed at 37° C. for 5 min. After pre-warming, DMSO solution of the substrate was added such that the concentration of the final drug solution was 2 μM, and the metabolism reaction was started at 37° C. A given amount was sampled at 0 min, 5 min, 10 min and 30 min from the start of the reaction, 0.1 mg/mL dichlorvos-containing acetonitrile was added, and blended to discontinue the reaction. After discontinuation of the reaction, a deproteination treatment was performed by a centrifugation operation at 15000 rpm for 5 min. To the centrifugation supernatant was added 0.3% aqueous formic acid solution, admixed and the mixture was subjected to the measurement by LC/MS/MS. Then, as the residual ratio (%) at 30 min later, the ratio relative to the concentration at 0 min was calculated.

Data set [5] concerns human plasma. The experiment in a line: Anti-blood coagulant activity, aPTT method, Sysmex Cs-2000i (Experimental Example 3-2). The class given is biochemical. The following applies: negative logarithmic value of the concentration that prolongs aPTT of the control 2 times. The procedure:
Experimental Example 3-2 Measurement of Anti-Blood Coagulant Activity
as §2, with “Cs-2000i” for “CA-1500”, “(8” for “(4”, “(40” for “(20”, “(360” for “(180”
as §3

FXa, sequence (P00742 235-488 limits assumed): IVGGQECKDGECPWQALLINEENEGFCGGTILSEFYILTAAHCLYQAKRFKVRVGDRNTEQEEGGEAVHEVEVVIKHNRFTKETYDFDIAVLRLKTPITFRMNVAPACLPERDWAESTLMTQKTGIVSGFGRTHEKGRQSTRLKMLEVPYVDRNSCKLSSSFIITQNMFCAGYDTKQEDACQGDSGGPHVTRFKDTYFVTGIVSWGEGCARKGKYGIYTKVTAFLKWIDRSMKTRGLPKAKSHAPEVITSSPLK
FXa, sequence (P00742 41-179 partner limits assumed): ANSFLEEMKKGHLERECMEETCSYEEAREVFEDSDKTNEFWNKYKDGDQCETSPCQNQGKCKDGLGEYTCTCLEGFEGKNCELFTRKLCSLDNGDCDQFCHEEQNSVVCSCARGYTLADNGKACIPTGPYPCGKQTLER

On to `N=C(N)c1cccc(N2CCC[C@H]2C(=O)Oc2ccc(C(=N)N3CCCC3)cc2)c1` [compound of Ex. 8, 4-[imino(pyrrolidin-1-yl)methyl]phenyl 1-{3-[amino(imino)methyl]phenyl}-L-prolinate 2 trifluoroacetate], for which the values for the IC50 (on FXa; in data set [1]) were 282 nM and 25700 nM, respectively. Besides, in the data set with human plasma [2], the paPTT2 is recorded as 5.66.
As to `N=C(N)c1cccc(N2CCC[C@@H]2COC(=O)c2ccc(C(=N)N3CCCC3)cc2)c1` [compound of Ex. 23, ((2R)-1-{3-[amino(imino)methyl]phenyl}pyrrolidin-2-yl)methyl 4-[imino(pyrrolidin-1-yl)methyl]benzoate 2 trifluoroacetate], in data set [3], the half-life at 2 μM came to 0.2 min. In data set [4], the “residual ratio (%) of liver S9 fraction 30 min later” value is recorded as 76%.
On to `N=C(N)c1cccc(N2CCC[C@@H]2C(=O)Oc2ccc(C(=N)N3CCCC3)cc2)c1` [compound of Ex. 9, 4-[imino(pyrrolidin-1-yl)methyl]phenyl 1-{3-[amino(imino)methyl]phenyl}-D-prolinate 2 trifluoroacetate], for which the IC50 at FXa was 20 nM; in data set [1], 692 nM. The paPTT2 in the data set on human plasma [2] was determined as 6.69.
The corresponding values for `CN(CC(=O)Oc1ccc(C(=N)N2CCCC2)cc1)c1cccc(C(=N)N)c1` [compound of Ex. 1, 4-[imino(pyrrolidin-1-yl)methyl]phenyl N-{3-[amino(imino)methyl]phenyl}-N-methylglycinate 2 trifluoroacetate] are 45.7 nM, more than 100000 nM and 5.48.
As for `N=C(N)c1cccc(N2CCCC[C@@H]2C(=O)Oc2ccc(C(=N)N3CCCC3)cc2)c1` [compound of Ex. 18, 4-[imino(pyrrolidin-1-yl)methyl]phenyl (2R)-1-{3-[amino(imino)methyl]phenyl}piperidine-2-carboxylate 2 trifluoroacetate], the IC50 on FXa was 4.57 nM; in data set [1], 2950 nM. The compound further showed a paPTT2 in the data set on human plasma [2] of 6.64.
`CC(=N)N1CCC(Oc2ccc(C(=O)OC[C@@H]3CCCN3c3cccc(C(=N)N)c3)cc2)CC1` [compound of Ex. 24, ((2S)-1-{3-[amino(imino)methyl]phenyl}pyrrolidin-2-yl)methyl 4-[(1-ethanimidoylpiperidin-4-yl)oxy]benzoate 2 trifluoroacetate]: in data set [3], the half-life at 2 μM was found to be 0.5 min. Further, the “residual ratio (%) of liver S9 fraction 30 min later” value in data set [4] amounted to 92%.
Turning to `C[C@@H](C(=O)Oc1ccc(C(=N)N2CCCC2)cc1)N(C)c1cccc(C(=N)N)c1` [compound of Ex. 4, 4-[imino(pyrrolidin-1-yl)methyl]phenyl N-{3-[amino(imino)methyl]phenyl}-N-methyl-L-alaninate 2 trifluoroacetate], the IC50 on FXa was 13.5 nM; in data set [1] it was 83200 nM. For the same compound, in the data set with human plasma [5], the paPTT2 turned out to be 6.89. In addition, the half-life at 2 μM in data set [3] is 4 min. For the same compound, the “residual ratio (%) of liver S9 fraction 30 min later” value in data set [4] is given as 57%.
For the compound `CCCC[C@H](C(=O)Oc1ccc(OC2CCN(C(C)=N)CC2)cc1)N(C)c1cccc(C(=N)N)c1` [compound of Ex. 41, 4-[(1-ethanimidoylpiperidin-4-yl)oxy]phenyl N-{3-[amino(imino)methyl]phenyl}-N-methyl-L-norleucinate 2 trifluoroacetate], the IC50 on FXa was 2.95 nM; in data set [1], 2190 nM. Besides, the paPTT2 with human plasma [5] is reported as 6.53.
The like results for `N=C(N)c1cccc(N2CCCC[C@@H]2C(=O)Oc2ccc(C(=N)N3CCCC3)cc2C(=O)O)c1` [compound of Ex. 52, 2-{[((2R)-1-{3-[amino(imino)methyl]phenyl}piperidin-2-yl)carbonyl]oxy}-5-[imino(pyrrolidin-1-yl)methyl]benzoic acid 2 trifluoroacetate] were, in that order, 18.2 nM, more than 100000 nM and 6.35.
The like results for `COC(=O)c1cc(C(=N)N2CCCC2)ccc1OC(=O)[C@H]1CCCCN1c1cccc(C(=N)N)c1` [compound of Ex. 51, 4-[imino(pyrrolidin-1-yl)methyl]-2-(methoxycarbonyl)phenyl (2R)-1-{3-[amino(imino)methyl]phenyl}piperidine-2-carboxylate 2 trifluoroacetate] were, in that order, 14.1 nM, 2240 nM and 6.79.
As to `CC(=N)N1CCC(Oc2ccc(OC(=O)[C@H]3CCCCN3c3cccc(C(=N)N)c3)cc2)CC1` [compound of Ex. 19, 4-[(1-ethanimidoylpiperidin-4-yl)oxy]phenyl (2R)-1-{(3-[amino(imino)methyl]phenyl}piperidine-2-carboxylate 2 trifluoroacetate], the IC50 was 7.76 nM at FXa and 3390 nM in data set [1]. In the data set on human plasma [2], the paPTT2 stood at 6.89.
The corresponding values for `N=C(N)c1cccc(N2CCCC[C@H]2C(=O)Oc2ccc(C(=N)N3CCCC3)cc2)c1` [compound of Ex. 16, 4-[imino(pyrrolidin-1-yl)methyl]phenyl (2S)-1-{3-[amino(imino)methyl]phenyl}piperidine-2-carboxylate 2 trifluoroacetate] are 15.1 nM, 70800 nM and 6.85.
For `C[C@H](C(=O)Oc1ccc(C(=N)N2CCCC2)cc1)N(C)c1cccc(C(=N)N)c1` [compound of Ex. 5, 4-[imino(pyrrolidin-1-yl)methyl]phenyl N-{3-[amino(imino)methyl]phenyl}-N-methyl-D-alaninate 2 trifluoroacetate], the figures for the IC50 (on FXa; in data set [1]) were 20 nM and 38000 nM, respectively. In the data set with human plasma [5], the paPTT2 is 6.26. Also, in data set [3], the half-life at 2 μM was 3.7 min. Besides, the “residual ratio (%) of liver S9 fraction 30 min later” value in data set [4] is given as 64%.
Turning to `CC(=N)N1CCC(Oc2ccc(OC(=O)[C@@H]3CCCCN3c3cccc(C(=N)N)c3)cc2)CC1` [compound of Ex. 17, 4-[(1-ethanimidoylpiperidin-4-yl)oxy]phenyl (2S)-1-{3-[amino(imino)methyl]phenyl}piperidine-2-carboxylate 2 trifluoroacetate], the IC50 is 40.7 nM on FXa and 53700 nM in data set [1]. This compound returned a paPTT2 with human plasma [2] of 6.33.
